Measured values published in patent publication US20100021555A1, “Compositions containing high omega-3 and low saturated fatty acid levels” (priority 2004, published 2010).

Assays:
dairy cows = details: cited from earlier work
lactating dairy cows = assay: Pilot supplementation study in lactating dairy cows: milk fatty acids by GC; assay type: in vivo, Friesian dairy cows
Excerpt: (§1) Ethical approval was obtained from the University of Auckland Animal Ethics Committee to undertake an pilot supplementation study. The study involved supplementing the diets of four Friesian dairy cows with single daily dose of 40 and 160 of ethyl-eicospaentaenoic acid (>98% purity) for nine days. Cows were divided into a high-to-low dose (HTLD) group (n=2) with animals supplemented with 160 grams of EPA at day one with the dose decreasing by 15 grams each day to reach 40 grams at day nine and a low-to-high dose (LTHD) group (n=2) with animals supplemented with 40 grams on day one the dose increasing by 15 grams each day to reach 160 grams at day nine. Feeding and milk sampling was undertaken between 19 and 29 August 2004 at a dairy farm in West Aucldand under the supervision of a supervising veterinarian with experience in caring for the herd. Supplements were given by drenching gun once daily in the morning subsequent to milking. Prior to supplementation each day duplicate 50 ml samples of milk were collected from each animal and stored in 100 ml polyethylene containers in a temperature controlled minus 20 deg C. freezer within one hour of collection. Milk samples were thawed and fatty acids extracted and prepared for analysis. Milkfat was methylated by dissolving in hexane and reaction with 2 molar KOH methanol. 20 milligrams of fat dissolved in 2 mls in N-Hexane then 20 micro-litres of 2 molar KOH methanol was added left to stand for 3 seconds and vortexed vigorously for 30 seconds. The mixture was then allowed to stand for 6 minutes before being neutralized to methyl red with 2 molar HCl in water before being vortexed again and centrifuged (modified method from agilent website also reported in Terry Knight publications) Knight T. W., et al., New Zealand Journal Of Agricultural Research 47:3,: 287-297 SEP (2004). An aliquot of hexane was then taken and analysed by GCFID 6890 (Agilent Corp) with 105 meter 0.25 mm RTX2330 90% bis cyanoprofile column (Restek) and 0.25 micron film thickness. Fatty acids were identified by retention time in comparison with a 37-component mixture (Suplco). Peak areas were corrected for peak response using theoretical response factors (AOCS reference). Results were reported as area under curve.
A permutation based method of statistical analysis was used to assess FA baseline composition with reference to a reference baseline derived from population of four thousand one hundred NZ Fresian dairy cows. Each fatty acid peak measured in the feeding trial was logged (log base 2), and had the day 0 (baseline) measurement subtracted to report a change from baseline at each time point. Significance of the changes in four-cow and two-cow means was tested by randomly selecting many groups of two or four cows from the herd of 4100 animal reference dataset and comparing the feeding trial results against the mean of logged measurements from the larger reference population. This produced baseline distributions for each group size which were centered at zero to match the baseline centered means from the animals in the feeding trial. Significance thresholds were then adjusted for the number of fatty acid peaks being investigated, and the number of measurements taken.

delta-9-desaturase = assay: Milkfat substrate/product ratios (SFA : monounsaturated counterpart), proxy for delta-9-desaturase activity; assay type: in vivo, Friesian dairy cows; details: for C:18:C18:1 ratio in milkfat: baseline 0.49; for C:10:C10:1 ratio in milkfat: baseline 12.66; for C:14:C14:1 ratio in milkfat: baseline 14.93; for C:16:C16:1 ratio in milkfat: baseline 17.40
Excerpt: as §1
Saturated Fatty Acids: A reduction in dietary amounts of certain saturated fatty acids (SFAs), including in particular the major milk fatty acid C16:0, a has been recommended by health experts (WHO Technical Report Series 916, WHO Geneva (2003)). Under normal circumstances about 50% of dietary C16:0 is taken up by the mammary gland. […] This decrease in milkfat C16:0 is unlikely to be explained by altered feeding behavior during the study given corresponding changes were not observed in other SFAs. In order to investigate the contribution of further metabolism of C16:0 in the mammary gland to palmitoleic acid (C16:1) we compared substrate/product ratios in milkfat for a number of SFAs and their monounsaturated fatty acid counterparts. These ratios are considered to be a proxy measure for the activity of the delta-9-desaturase activity enzyme. (see Table 1 below).

bovine hepatocytes = bovine hepatocytes supplemented in vitro; cited from earlier work
rumen microorganisms = details: in vitro; cited from earlier work

CC/C=C\C/C=C\C/C=C\CCCCCCCC(=O)O [ALA, alpha linolenic acid]
EPA in milkfat (dairy cows; duodenal infusion of 500 grams per day of ALA): no concomitant increase | level of ALA in milkfat (dairy cows; duodenal infusion of 500 grams per day): 14%

CC/C=C\C/C=C\C/C=C\C/C=C\C/C=C\CCCC(=O)OCC [ethyl-eicospaentaenoic acid]
day by which milk DPA rose significantly from baseline (lactating dairy cows; HTLD group): three | day by which milk EPA rose significantly from baseline (lactating dairy cows; HTLD group): two | EPA as a percentage of total fatty acids in milk, peak (lactating dairy cows; HTLD group (160 to 40 g/day), peak at day five): 1.55 % TFA | DPA as a percentage of total fatty acids in milk, peak (lactating dairy cows; HTLD group, peak at day six): 0.41 % TFA | day by which milk DPA rose significantly from baseline (lactating dairy cows; LTHD group): seven | day by which milk EPA rose significantly from baseline (lactating dairy cows; LTHD group): five | EPA as a percentage of total fatty acids in milk, peak (lactating dairy cows; LTHD group (40 to 160 g/day), peak at day nine): 1.29 % TFA | DPA as a percentage of total fatty acids in milk, peak (lactating dairy cows; LTHD group, peak at day eleven): 0.38 % TFA | milkfat stearic acid (C18:0) (lactating dairy cows; already significant by day three): dramatic reduction | maximum reduction of % TFA C16:0 in milk (lactating dairy cows; day nine, across both groups): 15.44 % of baseline levels | % TFA C16:0 in milk (lactating dairy cows; day nine, across both groups, baseline 36.78): 31.1 % TFA | CLA in milk, increase over baseline levels at maximum (lactating dairy cows; in vivo): 375% | CLA in milk, maximum level (lactating dairy cows; in vivo): 4.2 % of total fatty acids | CLA in milk, mean increase over baseline levels (lactating dairy cows; mean): 274% | DHA in milk (lactating dairy cows; undetectable at baseline, throughout the study): remained unchanged | C:10:C10:1 ratio, % of baseline (delta-9-desaturase; Day Eleven): 106.4 % of baseline | C:14:C14:1 ratio, % of baseline (delta-9-desaturase; Day Eleven): 110.6 % of baseline | C:16:C16:1 ratio, % of baseline (delta-9-desaturase; Day Eleven): 113.4 % of baseline | C:18:C18:1 ratio, % of baseline (delta-9-desaturase; Day Eleven): 98 % of baseline | C:18:C18:1 ratio in milkfat (delta-9-desaturase; Day Eleven): 0.48 | C:10:C10:1 ratio in milkfat (delta-9-desaturase; Day Eleven): 13.46 | C:14:C14:1 ratio in milkfat (delta-9-desaturase; Day Eleven): 16.51 | C:16:C16:1 ratio in milkfat (delta-9-desaturase; Day Eleven): 19.67 | C:10:C10:1 ratio, % of baseline (delta-9-desaturase; Day Five): 82.5 % of baseline | C:14:C14:1 ratio, % of baseline (delta-9-desaturase; Day Five): 83.3 % of baseline | C:16:C16:1 ratio, % of baseline (delta-9-desaturase; Day Five): 90.6 % of baseline | C:18:C18:1 ratio, % of baseline (delta-9-desaturase; Day Five): 65.3 % of baseline | C:10:C10:1 ratio in milkfat (delta-9-desaturase; Day Five, across both groups): 10.45 | C:18:C18:1 ratio in milkfat (delta-9-desaturase; Day Five): 0.32 | C:14:C14:1 ratio in milkfat (delta-9-desaturase; Day Five): 12.44 | C:16:C16:1 ratio in milkfat (delta-9-desaturase; Day Five): 15.76

CC/C=C\C/C=C\C/C=C\C/C=C\C/C=C\CCCC(=O)O [EPA, 5,8,11,14,17,-eicosapentaenoic acid (20:5n-3)]
oxidation of C16:0 (bovine hepatocytes): significant increase | biohydrogenation of linoleic (LA C18:2) and alpha-linolenic (ALA C18:3) acid (rumen microorganisms): inhibition
